Experimental data published in US5852011A, “Benzimidazole derivatives” (Mitsui Chemicals, Inc., priority 1994, dated 1998).
≈ marks a conversion by molar mass, not a printed value. Structures can show the parent of a compound that is named as a salt. One block for each compound: values may come before it.

Assays:
mouse B16 melanoma cells = assay: In vitro inhibition of proliferation of tumored cells, mouse B16 melanoma (Test 2); type: cell-based; conditions: 3 days in 5% CO2 at 37° C., 96-well plate; for IC50: Mus musculus, B16, 72 h, read-out: 50% Inhibition
Protocol: A description will next be made of antitumor activities of these compounds. Their antitumor activities were determined by measuring their in vitro inhibition of proliferation of tumored cells. Namely, mouse B16 melanoma cells were spread over a 96-well culture plate. One day later, each drug was applied. The melanoma cells were then incubated for 3 days in 5% CO2 at 37° C. Following the method reported in Cancer Res., 48, 589-601(1988), the concentration of the drug required to induce 50% inhibition on the proliferation was determined. As a comparative example, the results obtained from the application of distamycin are also shown.

[1] = system: Colon 26 mouse colon cancer cells; assay: In vivo antitumor activity, Colon 26 subcutaneously transplanted to female CDF1 mice (Test 4); conditions: caudal vein, tumor weight on day 15
Protocol: Prepared was a 1×10^7 cells/ml suspension of Colon 26 mouse colon cancer cells in HBSS (Hanks' Balanced Salt Solution). A 0.1 ml portion of the cell suspension was subcutaneously transplanted to a lateroabdominal part of each female CDF1 mouse. After the body weight of the mouse was measured on the following day of the transplantation of the tumor, a solution of a compound (5% glucose solution containing 5% of "Tween 80") was administered into the caudal vein of the mouse. On day 15, a tumor was excised and its weight was measured.
The percentage of the average tumor weight of each experiment group as calculated by supposing that the average tumor weight of the control group not administered with any drug was 100% was calculated as a T/C value.
Corresponding to each compound number, its T/C value is shown. The number in parentheses indicates the concentration of the drug when the T/C value was indicated.

[2] = system: A(adenine)-T(thymine) DNA copolymer; assay: Change in Tm (melting temperature) of DNA copolymer on addition of compound (Test 1); type: binding; conditions: for ΔTm: difference between Tm with and without compound, citrated buffer
Protocol: To investigate bonding of these compounds with DNA, changes in Tm (melting temperature) were measured. With respect of each of these compounds, the measurement was conducted by determining the difference between Tm measured when a citrated buffer solution of an A(adenine)-T(thymine) DNA copolymer was added with the compound and that measured when the compound was not added. For the measurement, a spectrophotometer ("HITACHI U-3200 MODEL") was used and for temperature control, "HITACHI SPR-10 MODEL" was used.

P388 leukemia cells = assay: In vivo antitumor activity, P388 leukemia intraperitoneally transplanted to female CDF1 mice (Test 3); set-up: species or system mouse; ILS: unit not given here; conditions: intraperitoneal, one, five and nine days after transplantation
Protocol: In vivo antitumor activities of these compounds were also studied. P388 leukemia cells (10^6 cells/mouse) were intraperitoneally transplanted to female CDF1 mice. One, five and nine days later, each compound was intraperitoneally administered (at 1, 3 or 10 mg/kg) to the mice. As a blank test, 5% glucose was intraperitoneally administered at 10 ml/kg to mice. Based on the group of the mice in the blank test as a control group, the effects of the individual drugs are shown in terms of ILS. The term "ILS" is represented by the following formula: [formula]
When test animals survived 8 weeks after the administration, the number of those survived was recorded without calculation of ILS.

SMILES: Cn1cc(NC(=O)CNC(=N)N)cc1-c1nc2cc(C(=O)Nc3ccc(N(CCCl)CCCl)c(C#N)c3)ccc2[nH]1 [Compound 1013, 1H-2-[1-Methyl-4-(guanidinoacetylamino)pyrrol-2-yl]benzimidazole-5-[N-[3-cyano-4-[N,N-bis(2-chloroethyl)amino]phenyl]]carboxamide dihydrochloride]
50% Inhibition (mouse B16 melanoma cells): 0.34 µg/mL
T/C ([1]; 3 mg/Kg): 58%

SMILES: Cn1cc(NC(=O)CNC(=N)N)cc1-c1nc2cc(C(=O)NCCc3ccc(N(CCCl)CCCl)cc3)ccc2[nH]1 [Compound 1003, 1H-2-[4-(2-Guanidinoacetylamino)-1-methylpyrrol-2-yl]benzimidazole-5-[N-[2-[4-[N,N-bis(2-chloroethyl)amino]phenyl]ethyl]]carboxamide hydrochloride]
50% Inhibition (mouse B16 melanoma cells): 0.018 µg/mL
T/C ([1]; 0.3 mg/Kg): 41%

IC50 (mouse B16 melanoma cells): 19.8 µg/mL
SMILES: Cn1cc(NC=O)cc1-c1nc2cc(C(=O)NCCC(=N)N)ccc2[nH]1 [Compound 318, 1H-2-(4-Formylamino-1-methylpyrrol-2-yl)benzimidazole-5-[N-(2-amidinoethyl)]carboxamide hydrochloride]
ΔTm [2]: 7 °C

SMILES: Cn1cc(NC(=O)c2ccc(N(CCCl)CCCl)cc2)cc1-c1nc2cc(C(=O)NCCC(=N)N)ccc2[nH]1 [Compound 1, 1H-2-[4-[4-[N,N-bis(2-chloroethyl)amino]benzoylamino]-1-methylpyrrol-2-yl]benzimidazole-5-[N-(2-amidinoethyl)]carboxamide hydrochloride]
50% Inhibition (mouse B16 melanoma cells): 0.23 µg/mL
ILS (P388 leukemia cells; 1 mg/kg): 38
T/C ([1]; 2 mg/Kg): 29%

binding to DNA indicated by Tm (in words) ([2]; melting temperature of double-stranded DNA): increased Tm value
SMILES: Cn1cc(C=O)cc1-c1nc2cc(C(=O)NCCC(=N)N)ccc2[nH]1

SMILES: Cn1cc(NC(=O)c2cc(NC(=O)c3cc(NC=O)cn3C)cn2C)cc1C(=O)NCCC(=N)N [Distamycin, distamycin, reference compound]
ΔTm [2]: 10 °C
IC50 (mouse B16 melanoma cells): 36 µg/mL (≈ 74.8 µM)

SMILES: Cc1cc(NC(=O)c2ccc3[nH]c(-c4cc(NC(=O)CNC(=N)N)cn4C)nc3c2)ccc1N(CCCl)CCCl [Compound 1005, 1H-2-[1-Methyl-4-(2-guanidinoacetylamino)pyrrol-2-yl]benzimidazole-5-[N-[3-methyl-4-[N,N-bis(2-chloroethyl)amino]phenyl]]carboxamide dihydrochloride]
50% Inhibition (mouse B16 melanoma cells): 0.65 µg/mL
T/C ([1]; 15 mg/Kg): 20%

SMILES: CN(C)CCCC(=O)Nc1cc(-c2nc3cc(C(=O)Nc4ccc(N(CCCl)CCCl)cc4)ccc3[nH]2)n(C)c1 [Compound 1256, 1H-2-[1-Methyl-4-[4-(N,N-dimethylamino)butyrylamino]pyrrol-2-yl]benzimidazole-5-[N-[4-[N,N-bis-(2-chloroethyl)amino]phenyl]]carboxamide hydrochloride]
50% Inhibition (mouse B16 melanoma cells): 4.67 µg/mL
T/C ([1]; 15 mg/Kg): 60%

SMILES: Cn1cc(NC(=O)CNC(=N)N)cc1-c1nc2cc(C(=O)Nc3ccc(N(CCCl)CCCl)c(Cl)c3)ccc2[nH]1 [Compound 1017, 1H-2-[1-Methyl-4-(guanidinoacetylamino)pyrrol-2-yl]benzimidazole-5-[N-[3-chloro-4-[N,N-bis(2-chloroethyl)amino]phenyl]]carboxamide dihydrochloride]
50% Inhibition (mouse B16 melanoma cells): 0.78 µg/mL
T/C ([1]; 3 mg/Kg): 30%

SMILES: Cn1cc(NC(=O)CNC(=N)N)cc1-c1nc2cc(C(=O)Nc3ccc(N(CCCl)CCCl)cc3)ccc2[nH]1 [Compound 1001, 1H-2-[1-Methyl-4-(2-guanidinoacetylamino)pyrrol-2-yl]benzimidazole-5-[N-[4-[N,N-bis(2-chloroethyl)amino]phenyl]]carboxamide hydrochloride]
50% Inhibition (mouse B16 melanoma cells): 0.53 µg/mL
ILS (P388 leukemia cells; 10 mg/kg): 115
T/C ([1]; 6 mg/Kg): 7%

SMILES: Cn1cc(NC(=O)CCCc2ccc(N(CCCl)CCCl)cc2)cc1-c1nc2cc(C(=O)NCCC(=N)N)ccc2[nH]1 [Compound 4, 1H-2-[4-[4-[4-[N,N-bis(2-chloroethyl)amino]phenyl]butylylamino]-1-methylpyrrol-2-yl]benzimidazole-5-[N-(2-amidinoethyl)]carboxamide hydrochloride]
ΔTm [2]: 17 °C
50% Inhibition (mouse B16 melanoma cells): 0.04 µg/mL

SMILES: COc1cc(NC(=O)c2ccc3[nH]c(-c4cc(NC(=O)CNC(=N)N)cn4C)nc3c2)ccc1N(CCCl)CCCl [Compound 1009, 1H-2-[1-Methyl-4-(guanidinoacetylamino)pyrrol-2-yl]benzimidazole-5-[N-[3-methoxy-4-[N,N-bis(2-chloroethyl)amino]phenyl]]carboxamide dihydrochloride]
50% Inhibition (mouse B16 melanoma cells): 2.31 µg/mL
T/C ([1]; 10 mg/Kg): 29%
